Data set [1] concerns Lew specific CTL precursors in splenocytes. The experiment in a line: Limiting dilution assay for CTL precursors in splenocytes of treated rats. The conditions noted are these: treated on the day of splenectomy or 24 hours earlier. In kind it is in vivo, rat. The protocol:
The effect of peptides on CTL precursor frequencies in splenocytes was tested as follows. Limiting dilution analysis was carried out essentially as described (Moeller et al. 1993, supra; Skinner and Marbrook. J. Exp. Med. (1976) 143:1562). Briefly, spleens were removed from naive animals or from animals that had received an allograft a minimum of 60 days earlier and then teased into a single cell suspension. Responder cells were plated from 1000 to 40,000 cells per well (24 replicates per concentration) into round bottom microliter wells in RPMI 1640 supplemented with 10% fetal bovine serum (Hyclone, Logan, Utah), 2 mM L-glutamine, 5×10^5M μ-mercaptoethanol, 100 U/ml penicillin, 100 μg/ml streptomycin, 20% supernatant from Concanavalin A activated rat spleen cells, and 50 μM α-methyl mannoside. Then, 5×10^5 irradiated (2000 rads) stimulator cells were added to each well and plates were incubated in a humidified CO2 incubator. […] Aliquots of supernatant were counted in a gamma counter and CTL precursor frequency determined by linear regression (Skinner and Marbrook. 1976, supra). […]
PVG (RT1^c) or ACI (RT1^a) rats were treated with a single intravenous injection of saline or 2 mg of A2.75-84, B7.75-84, B2702.75-84, or RT1^a.75-84 peptide. […] CTL precursor frequency was determined by linear regression analysis.

For data set [2], the system named is CD8+ CTL line specific for HLA-A2. The experiment in a line: Cytotoxicity assay: inhibition of lysis by established CTL (51Cr-labeled JY targets). In kind it is cell-based, human. The protocol: CTL assays were performed as described using ^51Cr-labeled EBV transformed B cells expressing the appropriate HLA allele as targets [[…] et al., J. Immunol. (1982) 129:2001]. In the present protocol, a CD8+ CTL line specific for HLA-A2 was tested in the presence of various peptides for lysis of ^51Cr-labeled JY targets. Peptides were added to a final concentration of 100 μg/ml at the initiation of the 4 h assay. Each determination was the mean of triplicate wells.

In the next data set the test system is rat splenocytes. The data set is described as follows: Differentiation of rat splenocytes into allospecific CTL in vitro. In kind it is cell-based.
The test system of data set [3] is abdominal heterotopic heart allografts. The data set is described as follows: Cardiac allograft survival in rats (Lew heart into ACI recipients). Particulars: peptide in the two weeks before or 4 days after surgery plus CsA on days 0-4, rats. In kind it is in vivo, rat. The text has this:
Vascularized cardiac allografts were heterotypically transplanted into the abdomen of recipient rats using a modification of the technique of Ono and Lindsay (Ono and Lindsey J. Thorac. Cardiovasc. Surg. (1969) 57:225). Abdominal allografts were palpated on a daily basis to assess graft function, and rejection was deemed complete when palpable ventricular contractions ceased.
Cyclosporin A (CsA, Sandoz Pharmaceuticals Corporation, Base, Switzerland) dissolved in olive oil was given orally through a gavage tube at the indicated dose. Peptides were dissolved in water or saline and given intravenously or by gavage as indicated.
Since the B7.75-84 and B2702.75-84 peptides blocked cellular immunity in vivo, we examined their effects on allograft survival in rats. ACI (RT1^a) recipients were given abdominal heterotopic heart allografts from Lew donors (Moeller et al. 1993, supra; Ono and Lindsey. 1969, supra). Graft function was monitored by daily abdominal palpation, and rejection was scored as complete when the palpable ventricular contractions ceased.

Another data set deals with purified T cells. The experiment in a line: Proliferation of purified T cells stimulated by immobilized anti-CD3. Format: cell-based, human. Particulars: immobilized anti-CD3 antibody. The protocol: PBL were isolated from normal donors by centrifugation over Ficoll-Hypaque. In some cases, T cells were purified from this preparation using the method of Secrist et al. [J Exp. Med. (1993) 178:2123]. Briefly, cells isolated over Ficoll-Hypaque were incubated for 1 hour in Petri dishes. Nonadherent cells were passed over a nylon wool column and the resulting population was >90% CD3+ by FACS analysis. CD8+ CTL lines specific for HLA-A2, B7, B27, B48, or Cw4 were generated and maintained in long-term culture as previously described [Buxton et al., J Exp. Med. (1992) 175:809; Wesley et al., Hum. Immunol. (1993) 36:149]. Jurkat E6-1 and the T cell receptor negative Jurkat, JRT3-T3.5, were obtained from the American Type Culture Collection (ATCC; Rockville, Md.). […]
10^5 cells were added to microtiter wells that had been coated with anti-CD3 (Sigma, St. Louis, Mo.) at 5 μg/ml. […] Plates were harvested on a PHD Cell Harvester 24 hours later and [^3H]-thymidine incorporation determined by scintillation counting.
Peptides were evaluated for effects on the proliferation of purified T cells stimulated by immobilized anti-CD3 antibody. […]

Another data set has as its system draining lymph nodes. The data set is described as follows: Lymph node proliferation assay (footpad challenge with allogeneic versus syngeneic splenocytes). In kind it is in vivo, rat. Particulars: treated within 24 hours of footpad injection. The protocol: ACI or PVG rats (200 g) were injected intravenously with peptides dissolved in saline on day 0. On the indicated days thereafter, the left rear footpads of the rats were injected with 5×10^6 splenocytes from a syngeneic donor and the right rear footpads with 5×10^6 splenocytes from an allogeneic Lew donor (Moeller etal. Transplantation (1993)55:650). See also Twist and Barnes Transplantation (1973) 15:182; Fanslow et al. Science (1990) 248:739). Seven days after the footpad injection, the animals were sacrificed and the popliteal lymph nodes removed. A single cell suspension was prepared, and the cell number determined using a hemocytometer.
PVG or ACI rats (3 per group) were given a single intravenous injection of 2 mg of each of the four peptides or saline. On the day of treatment, or on days 1, 7, or 10 after treatment, the right footpads were injected with 5×10^6 syngeneic splenocytes while the left footpads were injected with 5×10^6 allogeneic Lew splenocytes. Seven days after the footpad injections, the draining lymph nodes were removed, a single cell suspension was prepared, and the cell number determined.

“Also recorded” adds a separate entry of the source. No end group written: not given here.

On to “B2702.75-84: synthetic peptide, HLA-B2702 residues 75-84, sequence RENLRIALRY [Peptide B2702.75-84]”, for which the “precursor frequency of Lew specific cells compared with saline” value in data set [1] was “The same frequency”. Also, the “inhibition of lysis by established CTL” value in data set [2] (HLA-A2 specific CD8+ CTL, 51Cr-labeled JY targets, peptide 100 μg/ml, 4 h assay) was “inhibited lysis by established CTL”. The “blocking of differentiation of rat splenocytes into allospecific CTL” value in the data set with rat splenocytes is “blocked the differentiation of rat splenocytes into allospecific CTL in vitro”. For the same substance, in data set [3], the “allograft rejection under peptide in combination with CsA” value is reported as “rejected similarly to allografts in animals treated with CsA alone; also recorded: did not show prevention of allograft rejection”. Besides, the “inhibition of proliferation of purified T cells (3H-thymidine incorporation)” value with purified T cells is “do not”. Also, the “ratio of the number of cells recovered, allogeneic versus syngeneic side” value in the data set with draining lymph nodes is reported as “A similar ratio”.
Regarding “WDRETQICKAKAQTDRENLRIALRY [Peptide B2702.60-84]”, the “potency relative to B2702.75-84, based on the concentration required to achieve 50% inhibition of cytotoxicity” value in data set [2] is given as “approximately 5 fold”.

The values are drawn from US6436903B1, “Immunomodulating compounds comprising d-isomers of amino acids” (Stanford University (Board of Trustees of the Leland …, priority 1996, dated 2002).
